Patent publication US20250145575A1, “MACROMOLECULE-SUPPORTED 8-SULFONYL-BENZAZEPINE COMPOUNDS AND THEIR USES” (BOLT BIOTHERAPEUTICS, INC., priority 2022, published 2025)

What was measured:
human TLR8 = target: T1, human TLR8 (Homo sapiens, UniProt Q9NR97); assay: HEK293 NFKB reporter assay, human TLR8; format: cell-based; conditions: HEK293 reporter cells expressing human TLR8; read-out: HEK293 hTLR8 EC50
T1 construct: host or cells: HEK293 reporter cells
T1 sequence (Q9NR97 27-1041): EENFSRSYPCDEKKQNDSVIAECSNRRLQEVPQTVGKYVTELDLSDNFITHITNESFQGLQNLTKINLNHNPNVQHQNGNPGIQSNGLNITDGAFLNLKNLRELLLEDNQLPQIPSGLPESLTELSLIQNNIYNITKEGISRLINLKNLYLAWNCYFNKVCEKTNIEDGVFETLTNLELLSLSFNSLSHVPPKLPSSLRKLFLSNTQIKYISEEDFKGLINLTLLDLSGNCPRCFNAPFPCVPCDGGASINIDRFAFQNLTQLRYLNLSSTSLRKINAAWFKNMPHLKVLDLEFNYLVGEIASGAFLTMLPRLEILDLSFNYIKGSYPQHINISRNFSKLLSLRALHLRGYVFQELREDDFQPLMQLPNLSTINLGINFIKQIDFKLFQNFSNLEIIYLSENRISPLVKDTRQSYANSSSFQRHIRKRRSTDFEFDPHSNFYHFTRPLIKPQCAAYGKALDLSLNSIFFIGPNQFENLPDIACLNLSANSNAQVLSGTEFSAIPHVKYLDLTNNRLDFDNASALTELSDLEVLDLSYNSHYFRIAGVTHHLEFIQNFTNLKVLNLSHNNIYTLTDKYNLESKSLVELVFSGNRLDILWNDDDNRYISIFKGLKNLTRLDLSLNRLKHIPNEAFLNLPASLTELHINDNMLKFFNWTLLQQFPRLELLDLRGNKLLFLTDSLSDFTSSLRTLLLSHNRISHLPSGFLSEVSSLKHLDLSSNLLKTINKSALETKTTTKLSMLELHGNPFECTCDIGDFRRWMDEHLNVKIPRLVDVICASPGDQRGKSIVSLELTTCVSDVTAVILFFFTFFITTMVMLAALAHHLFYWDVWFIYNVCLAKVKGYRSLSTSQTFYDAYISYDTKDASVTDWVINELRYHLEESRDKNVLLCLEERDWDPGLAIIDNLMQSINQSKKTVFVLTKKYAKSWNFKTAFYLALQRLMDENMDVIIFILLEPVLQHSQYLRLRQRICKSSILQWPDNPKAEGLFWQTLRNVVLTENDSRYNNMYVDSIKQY
Procedure: (§1) Exemplary 8-sulfonyl-2-aminobenzazepine compounds (8SO2Bz) of the invention were synthesized, purified, and characterized by mass spectrometry and shown to have the expected mass. Additional experimental procedures are found in the Examples. Activity against HEK293 NFKB reporter cells expressing human TLR7 or human TLR8 was measured according to Example 202.
(§2) Example 202 HEK Reporter Assay
(§3) HEK293 reporter cells expressing human TLR7 or human TLR8 were purchased from Invivogen and vendor protocols were followed for cellular propagation and experimentation. Briefly, cells were grown to 80-85% confluence at 5% CO2 in DMEM supplemented with 10% FBS, Zeocin, and Blasticidin. Cells were then seeded in 96-well flat plates at 4×10^4 cells/well with substrate containing HEK detection medium and immunostimulatory molecules (MSC). Activity was measured using a plate reader at 620-655 nm wavelength.

human TLR7 = target: T2, human TLR7 (Homo sapiens, UniProt Q9NYK1); assay: HEK293 NFKB reporter assay, human TLR7; format: cell-based; conditions: HEK293 reporter cells expressing human TLR7; read-out: HEK293 hTLR7 EC50
T2 construct: host or cells: HEK293 reporter cells
T2 sequence (Q9NYK1 27-1049): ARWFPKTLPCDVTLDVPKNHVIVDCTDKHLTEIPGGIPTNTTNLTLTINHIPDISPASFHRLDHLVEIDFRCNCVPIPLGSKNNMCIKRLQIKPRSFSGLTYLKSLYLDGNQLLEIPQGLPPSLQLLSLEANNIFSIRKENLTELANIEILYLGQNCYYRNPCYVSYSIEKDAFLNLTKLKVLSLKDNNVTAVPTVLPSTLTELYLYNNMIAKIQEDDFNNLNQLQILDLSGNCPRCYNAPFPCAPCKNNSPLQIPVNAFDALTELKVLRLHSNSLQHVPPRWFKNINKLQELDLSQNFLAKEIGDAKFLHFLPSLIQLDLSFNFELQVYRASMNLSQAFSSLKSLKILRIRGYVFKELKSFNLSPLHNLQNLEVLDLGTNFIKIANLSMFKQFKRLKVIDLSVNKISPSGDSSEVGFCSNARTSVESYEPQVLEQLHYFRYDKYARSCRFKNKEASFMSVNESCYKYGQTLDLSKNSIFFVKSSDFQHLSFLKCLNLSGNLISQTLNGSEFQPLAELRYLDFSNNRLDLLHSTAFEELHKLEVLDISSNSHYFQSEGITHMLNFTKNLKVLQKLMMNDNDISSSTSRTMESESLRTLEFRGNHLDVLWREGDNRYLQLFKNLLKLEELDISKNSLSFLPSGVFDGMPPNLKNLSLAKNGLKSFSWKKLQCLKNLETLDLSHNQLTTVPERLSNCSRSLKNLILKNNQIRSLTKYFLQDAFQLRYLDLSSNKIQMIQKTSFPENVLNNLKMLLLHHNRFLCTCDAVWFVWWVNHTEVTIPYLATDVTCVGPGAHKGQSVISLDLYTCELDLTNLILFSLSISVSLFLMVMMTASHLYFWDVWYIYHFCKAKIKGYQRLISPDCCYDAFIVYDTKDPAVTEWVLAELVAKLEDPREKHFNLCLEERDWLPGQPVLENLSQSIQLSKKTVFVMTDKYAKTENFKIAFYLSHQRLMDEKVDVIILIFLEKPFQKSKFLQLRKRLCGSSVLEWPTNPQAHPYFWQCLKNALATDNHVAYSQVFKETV
Procedure: as §1, §2, §3

| EC50 (human TLR8) [nM] | EC50 (human TLR7) [nM] | Compound |
| --- | --- | --- |
| < 2.3 | 395 | CCCN(OCCCC(=O)OC(C)(C)C)C(=O)C1=Cc2ccc(S(=O)(=O)N(C)C)cc2N=C(N)C1 [8SO2Bz-2] |
| – | > 5000 | CCCN(OCC)C(=O)C1=Cc2ccc(S(=O)(=O)NC)cc2N=C(N)C1 [8SO2Bz-3] |
| – | > 9000 | CCCN(OCC)C(=O)C1=Cc2ccc(S(=O)(=O)c3ccc(C(=O)OC)cc3)cc2N=C(N)C1 [8SO2Bz-1] |
